Measured values from the supplement of paper PMC8253809.

What was measured:
[1] = test system: DIPGX29 (H3.3 K27M diffuse intrinsic pontine glioma line); test: EC50 (inflection of fitted growth-inhibition curve) (log10 M)
Method in brief: (§1)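 Patient-derived pHGG/DIPG cell lines and astrocyte controls were plated in 384-well plates coated with 1% Geltrex and dosed by pin tool with a 10-point threefold dilution series (mean top concentration 35 μM), in triplicate. Cells were exposed for 7 days (3 days for iAstro) at 37 °C and 5% CO2. CellTiter-Glo luminescence was log2-transformed, normalised per plate to % activity between negative (solvent) and positive control wells, and pooled. EC50 and maximal response (yFin) were taken from whichever three- or four-parameter log-logistic fit had the lowest AICc.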

[2] = test system: DIPGX37 (H3.3 K27M diffuse intrinsic pontine glioma line); test: as above
Method in brief: as §1

[3] = test system: DIPGX7 (H3.3 K27M diffuse intrinsic pontine glioma line); test: as above
Method in brief: as §1

[4] = test system: HGGX39 (paediatric high-grade glioma line); test: as above
Method in brief: as §1

[5] = test system: HGGX42 (H3.3 G34R paediatric high-grade glioma line); test: as above
Method in brief: as §1

[6] = test system: HGGX6 (H3.3 G34R paediatric high-grade glioma line); test: as above
Method in brief: as §1

[7] = test system: SUDIPGIV (diffuse intrinsic pontine glioma line); test: as above
Method in brief: as §1

[8] = test system: SUDIPGXXI (diffuse intrinsic pontine glioma line); test: as above
Method in brief: as §1

[9] = test system: DIPGX29; test: maximal growth inhibition (yFin) relative to DMSO / staurosporine; higher = more efficacious
Method in brief: as §1

[10] = test system: DIPGX37; test: as above
Method in brief: as §1

[11] = test system: DIPGX7; test: as above
Method in brief: as §1

[12] = test system: HGGX39; test: as above
Method in brief: as §1

[13] = test system: HGGX42; test: as above
Method in brief: as §1

[14] = test system: HGGX6; test: as above
Method in brief: as §1

[15] = test system: SUDIPGIV; test: as above
Method in brief: as §1

[16] = test system: SUDIPGXXI; test: as above
Method in brief: as §1

[17] = test system: DIPGX29; test: area under dose-response curve of % growth inhibition (log2 RLU vs DMSO / staurosporine), 1e-11 to 1e-4 M (% x log10 M); higher = more growth inhibition
Method in brief: (§2)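 Patient-derived pHGG/DIPG cell lines and astrocyte controls were grown on 1% Geltrex-coated 384-well plates and exposed to a 10-point threefold dilution series (mean top concentration 35 μM), in triplicate. Exposure was 7 days (iAstro 3 days) at 37 °C, 5% CO2. CellTiter-Glo luminescence was log2-transformed and normalised per plate to % activity between solvent and positive controls. Area under the curve was taken by trapezoid rule from the fitted log-logistic curve, or from a smoothing spline when the sigmoid fit failed.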

[18] = test system: DIPGX37; test: as above
Method in brief: as §2

[19] = test system: DIPGX7; test: as above
Method in brief: as §2

[20] = test system: DIPGX9 (diffuse intrinsic pontine glioma line); test: as above
Method in brief: as §2

[21] = test system: HABS (astrocyte control); test: as above
Method in brief: as §2

[22] = test system: HGGX2 (paediatric high-grade glioma line); test: as above
Method in brief: as §2

[23] = test system: HGGX39; test: as above
Method in brief: as §2

[24] = test system: HGGX42; test: as above
Method in brief: as §2

[25] = test system: HGGX6; test: as above
Method in brief: as §2

[26] = test system: SUDIPGIV; test: as above
Method in brief: as §2

[27] = test system: SUDIPGVI (diffuse intrinsic pontine glioma line); test: as above
Method in brief: as §2

[28] = test system: SUDIPGXIII (diffuse intrinsic pontine glioma line); test: as above
Method in brief: as §2

[29] = test system: SUDIPGXIX (diffuse intrinsic pontine glioma line); test: as above
Method in brief: as §2

[30] = test system: SUDIPGXVII (diffuse intrinsic pontine glioma line); test: as above
Method in brief: as §2

[31] = test system: SUDIPGXXI; test: as above
Method in brief: as §2

[32] = test system: iAstro (astrocyte control); test: as above
Method in brief: as §2

[33] = test system: DIPGX9; test: EC50 (inflection of fitted growth-inhibition curve) (log10 M)
Method in brief: as §1

[34] = test system: HGGX2; test: as above
Method in brief: as §1

[35] = test system: SUDIPGXIX; test: as above
Method in brief: as §1

[36] = test system: iAstro; test: as above
Method in brief: as §1

[37] = test system: DIPGX9; test: maximal growth inhibition (yFin) relative to DMSO / staurosporine; higher = more efficacious
Method in brief: as §1

[38] = test system: HGGX2; test: as above
Method in brief: as §1

[39] = test system: SUDIPGXIX; test: as above
Method in brief: as §1

[40] = test system: iAstro; test: as above
Method in brief: as §1

Row | Compound | EC50 (log10 M) [1] | EC50 (log10 M) [2] | EC50 (log10 M) [3] | EC50 (log10 M) [4] | EC50 (log10 M) [5] | EC50 (log10 M) [6] | EC50 (log10 M) [7] | EC50 (log10 M) [8] | maximal growth inhibition [9] | maximal growth inhibition [10] | maximal growth inhibition [11] | maximal growth inhibition [12] | maximal growth inhibition [13] | maximal growth inhibition [14] | maximal growth inhibition [15] | maximal growth inhibition [16] | area under dose-response curve [17] | area under dose-response curve [18] | area under dose-response curve [19] | area under dose-response curve [20] | area under dose-response curve [21] | area under dose-response curve [22] | area under dose-response curve [23] | area under dose-response curve [24] | area under dose-response curve [25] | area under dose-response curve [26] | area under dose-response curve [27] | area under dose-response curve [28] | area under dose-response curve [29] | area under dose-response curve [30] | area under dose-response curve [31] | area under dose-response curve [32] | EC50 (log10 M) [33] | EC50 (log10 M) [34] | EC50 (log10 M) [35] | EC50 (log10 M) [36] | maximal growth inhibition [37] | maximal growth inhibition [38] | maximal growth inhibition [39] | maximal growth inhibition [40]
1 | CC(C(O)c1ccc(O)cc1)N1CCC(Cc2ccccc2)CC1 (stereo not drawn) [IFENPRODIL] | -4.85 | -4.82 | -4.83 | -4.86 | -5.06 | -4.95 | -4.66 | -4.85 | 29.5% | 59.3% | 45.7% | 36.6% | 61.8% | 20.6% | 45.1% | 75.3% | 39.3 | 48.4 | 57.3 | 18.8 | 0.152 | 8.88 | 44.1 | 66.8 | 25.9 | 29.8 | 18.5 | 27.3 | 3.16 | 17.3 | 85.1 | 13.3 | – | – | – | – | – | – | – | –
2 | CC(C)N(CCCNC(=O)Nc1ccc(C(C)(C)C)cc1)C[C@H]1O[C@@H](n2cc(Br)c3c(N)ncnc32)[C@H](O)[C@@H]1O [SGC0946] | -4.49 | -4.52 | -4.86 | – | -4.53 | -4.77 | – | -4.77 | 100% | 65.1% | 35.5% | – | 102% | 43% | – | 107% | 58.4 | 56.4 | 54 | 24.1 | 8.16 | 58.5 | 14.8 | 66.7 | 33.2 | 11.6 | 20 | 40.5 | 57.8 | 27.7 | 82.6 | 21.5 | -4.79 | -4.58 | -4.54 | -4.87 | 30.4% | 100% | 107% | 25.3%
